Molecules are shown by their SMILES. Where two headings read alike, the source gives them in different places.

The test system of assay [1] is L1210 cells. Kind of assay: Cytotoxicity (cell growth, MTT) in L1210 cells. The class given is cell-based, mouse. The conditions noted are these: Mus musculus, read-out: L1210 IC50. From the text:
In terms of Table 1, L1210 cells are mouse leukemia cells and are the gold standard in terms of evaluating polyamine cytotoxicity data due to a plethora of prior data in this cell line for other polyamine structures. Clearly 7a was similar in all respects to 4a (Table 1). […] The lower the Ki value, the higher the affinity of the drug for the polyamine transporter (PAT) on the cell surface. Chinese hamster ovary (CHO) cells and a mutant line without an active PAT (CHO-MG) also evaluated the PAT selectivity of these drugs.
Biological Evaluation. Once synthesized, the conjugates were screened for cytotoxicity in L1210, CHO and CHO-MG cells. L1210 (mouse leukemia) cells were selected to enable comparisons with the published IC50 and Ki values for a variety of polyamine substrates. Chinese Hamster Ovary (CHO) cells were chosen along with a mutant PAT deficient cell line (CHO-MG) in order to comment on selective transport via the PAT (Wang et al, J. Med. Chem. 2003, 46, 2663-2671; Wang et al, J. Med. Chem. 2003, 46, 2672-2682; Wang et al., J. Med. Chem. 2003, 46, 5129-5138; Delcros et al., J. Med. Chem., 2002, 45, 5098-5111).
L1210 IC50 and Ki studies. […] The Ki values in Table 3 were determined for [^14C]spermidine uptake and reflect the affinity of the polyamine derivative for the polyamine transporter on the cell surface. With both parameters, one can determine whether high affinity for the transporter (e.g., low Ki value) translated into high cytotoxicity (e.g., low IC50 value), etc.
Biological studies. Murine leukemia cells (L1210), CHO and CHO-MG cells were grown in RPMI medium supplemented with 10% fetal calf serum, glutamine (2 mM), penicillin (100 U/mL), streptomycin (50 μg/mL). L-Proline (2 μg/mL) was added to the culture medium for CHO-MG cells. Cells were grown at 37° C. under a humidified 5% CO2 atmosphere. Aminoguanidine (AG, 2 mM) was added to the culture medium to prevent oxidation of the drugs by the enzyme (bovine serum amine oxidase) present in calf serum. Trypan blue staining was used to determine cell viability before the initiation of a cytotoxicity experiment. Cells in early to mid log-phase were used. IC50 determinations. Cell growth was assayed in sterile 96-well microtiter plates (Becton-Dickinson, Oxnard, Calif., USA). L1210 cells were seeded at 5e^4 cells/mL of medium (100 μL/well). CHO and CHO-MG cells were plated at 2e^3 cells/mL. Drug solutions (10 μL per well) of appropriate concentration were added at the time of seeding for L1210 cells and after an overnight incubation for the CHO cell lines. After exposure to the drug for 48 hr, cell growth was determined by measuring formazan formation from 3-(4,5-dimethylthiazol-2-yl)2,5-diphenyltetrazolium using a Titertek Multiskan MCC/340 microplate reader for absorbance (540 nm) measurements (Mosmann, T., J. Immunol. Methods 1983, 65, 55-63).

Assay [2] deals with polyamine transporter (PAT). The conditions noted are these: data originally reported in Ref; read-out: L1210 Ki value; cited from earlier work.
Assay [3] deals with CHO cells. The conditions noted are these: data originally reported in Ref; cited from earlier work.

Consider `CCN(CCCNCCCN)Cc1c2ccccc2cc2ccccc12` [Compound 7a, N-(3-Amino-propyl)-N′-anthracen-9-ylmethyl-N′-ethyl-propane-1,3-diamine], for which the half-inhibitory concentration (IC50) in assay [1] (L1210, 48 h incubation, new data) is 2200 nM.

Turning to `NCCCCNCCCCNCc1c2ccccc2cc2ccccc12` [Compound 6b], the IC50 in assay [1] (L1210, in the presence of AG, 48 h at 37° C.) came to 300 nM; in assay [1] (L1210 experiments, no added SPD), 300 nM. In addition, the Ki in assay [2] is 1800 nM. For the same compound, the “IC50 Ratio (CHO-MG/CHO), a measure of PAT selectivity” value in assay [3] is 148.

In general, IC50 refers to the concentration that gives 50% inhibition. The Ki is the dissociation constant of the complex between target and ligand, obtained from inhibition or displacement.

Values taken from patent US20090069441A1, “Motuporamine Mimic Agents” (priority 2006, published 2009).
